Values after ≈ are worked out from the molar mass of the structure shown.
What was measured:
[1] = tested on: Mycobacterium tuberculosis (M. tuberculosis kurono); test: Antimicrobial Assay (Agar Plate Dilution Method), M. tuberculosis kurono; type: cell-based; conditions: 336 h, M. tuberculosis kurono, 7H11 agar medium, cultured at 37° C. for 14 days, read-out: Minimum Inhibitory Concentration
[2] = tested on: Mycobacterium tuberculosis (M. tuberculosis H37Rv); test: Antimicrobial Assay (Agar Plate Dilution Method), M. tuberculosis H37Rv; type: cell-based; conditions: 336 h, 7H11 agar medium, cultured at 37° C. for 14 days, read-out: minimum inhibitory concentration

Row | Compound | MIC [1] [ng/mL] | MIC [2] [ng/mL]
1 | O=[N+]([O-])c1cn2c(n1)O[C@@H](COc1ccc(N3CCN(C/C=C/c4ccc(C(F)(F)F)cc4)CC3)cc1)CC2 [Example 372, (R)-2-nitro-7-(4-{4-[(E)-3-(4-trifluoromethylphenyl)allyl]piperazin-1-yl}phenoxymethyl)-6,7-dihydro-5H-imidazo[2,1-b][1,3]oxazine] | 6 (≈ 11 nM) | –
2 | O=[N+]([O-])c1cn2c(n1)O[C@@H](COc1ccc(N3CCN(c4ccc(OCc5ccc(OC(F)(F)F)cc5)cc4)CC3)cc1)CC2 [Example 198, (R)-2-nitro-7-(4-{4-[4-(4-trifluoromethoxybenzyloxy)phenyl]piperazin-1-yl}phenoxymethyl)-6,7-dihydro-5H-imidazo[2,1-b][1,3]oxazine] | ≤ 1.5 | –
3 | O=[N+]([O-])c1cn2c(n1)O[C@@H](COc1ccc(N3CCC(Cc4ccc(Oc5ccc(OC(F)(F)F)cc5)cc4)CC3)cc1)CC2 [Example 228, (R)-2-nitro-7-(4-{4-[4-(4-trifluoromethoxyphenoxy)benzyl]piperidin-1-yl}phenoxymethyl)-6,7-dihydro-5H-imidazo[2,1-b][1,3]oxazine] | 0.8 (≈ 1.28 nM) | ≤ 0.4
4 | COC1(c2ccc(C(F)(F)F)cc2)CCN(c2ccc(OC[C@H]3CCn4cc([N+](=O)[O-])nc4O3)cc2)CC1 [Example 471, (R)-7-{4-[4-methoxy-4-(4-trifluoromethylphenyl)piperidin-1-yl]phenoxymethyl}-2-nitro-6,7-dihydro-5H-imidazo[2,1-b][1,3]oxazine] | 12 (≈ 22.5 nM) | –
5 | C[C@@H]1CN(Cc2ccc(Oc3ccc(OC(F)(F)F)cc3)cc2)CCN1c1ccc(OC[C@H]2CCn3cc([N+](=O)[O-])nc3O2)cc1 [Example 335, (R)-7-(4-{(R)-2-methyl-4-[4-(4-trifluoromethoxyphenoxy)benzyl]piperazin-1-yl}phenoxymethyl)-2-nitro-6,7-dihydro-5H-imidazo[2,1-b][1,3]oxazine] | 1.5 (≈ 2.35 nM) | –
6 | O=[N+]([O-])c1cn2c(n1)O[C@@H](COc1ccc3c(c1)CCN(Cc1ccc(OCc4ccc(C(F)(F)F)cc4)cc1)C3)CC2 [Example 304, 6-((R)-2-nitro-6,7-dihydro-5H-imidazo[2,1-b][1,3]oxazin-7-ylmethoxy)-2-[4-(4-trifluoromethylbenzyloxy)benzyl]-1,2,3,4-tetrahydroisoquinoline] | 12 (≈ 20.2 nM) | –

Reference: US9051333B2, “6,7-dihydroimidazo [2,1-b] [1,3]oxazine bactericides” (OTSUKA PHARMACEUTICAL CO., LTD., priority 2011, dated 2015)
